The values that follow come from patent US11292776B2, “Small molecule inhibitors of fungal hyphae and biofilm formation” (University of Sharjah, priority 2019, dated 2022).

In series [1] the test system is C. albicans hyphae / biofilm. In words: Inhibition of Candida biofilm (hyphae) formation, microtiter plate MTT assay. Type of series: cell-based, C. albicans SC5314. Particulars: for MIC: MIC100 for biofilm (hyphal) formation, 24 hrs incubation, RPMI-1640, 37° C.; for inhibition at 10 µg/mL: 10 μg/mL, hyphae growth conditions. How it is done: (§1) Collections of bacterial and fungal strains were obtained from the laboratory of Dr. Ibrahim at Harbor-UCLA medical center, Torrance, Calif. The bacterial strains used in this study were the Gram-negative bacterium Escherichia coli and the Gram-Positive bacterium methicillin-resistant Staphylococcus aureus (MRSA) LAC300. All bacterial strains were cultured on sterile Luria-Bertani medium (LB). The fungal strain used in this study was C. albicans SC5314. C. albicans was inoculated into sterile yeast potato dextrose broth (YPD) and incubated for 24 h at 37° C. (This was used as an initial culture for all studies described), and incubated in two different media, Yeast Nitrogen Base (YNB) broth or Roswell Park Memorial Institute medium (RPMI-1640). Polymyxin B (colistin), vancomycin and Ketoconazole were purchased from (Sigma-Aldrich).
The MICs for cells forming biofilm were determined by a microtiter plate assay. Briefly, a 96-well polystyrene microtiter plate was seeded with 200 μL of RPMI-1640 containing 10^6 C. albicans cells in the presence of the compound of interest at concentration range of 1-100 μg/mL. After 24 h of incubation at 37° C., the biofilms were washed and the fungal viability was analyzed using 3-(4,5-dimethylthiazol-2-yl)-2,5-diphenyl tetrazolium bromide (MTT) (Sigma) and the final absorbance was measured at 540 nm. The assay was performed in triplicate and repeated three times. The MIC of the compounds causing 100% inhibition of C. albicans biofilm formation was determined by measuring the metabolic activity of biofilm compared to solvent control.

In a further series the test system is E. coli. Briefly: Antimicrobial activity / MIC against E. coli. Type of series: cell-based, Escherichia coli. Particulars: MIC100, 24 hrs incubation; for MIC: Escherichia coli, read-out: MIC Bacteria E. Coli. Here is the method:
as §1
(§2) The antimicrobial activity of compounds SR1-8 on agar plates, liquid broth media and MIC were measured according to modified Clinical and Laboratory Standards Institute (CLSI). Briefly, 0.1 mL containing 10^5 CFU/mL was spread on Luria-Bertani (LB) agar plates. The plates were then incubated at 37° C. for […] with filter discs (8 mm diameter) saturated with different dilutions of the compounds (1-400 μg/mL). The inhibition zones (mm) were measured by determining the diameter of the clear area. Similarly, the activity in liquid media was measured by incubating the aforementioned concentrations of the compounds into LB broth media inoculated with 10^5 CFU/mL in 96-well microplates at 37° C. for 24 h. The turbidity representing the microbial growth was measured by microplate reader (DYNEX technologies) at OD600. […] Each test was performed in triplicate. Ketoconazole, colistin and vancomycin were employed as positive controls against C. albicans, E. coli and S. aureus bacteria, respectively. Cultures without the compounds or antimicrobials were employed as negative control.

The subject of another series is C. albicans yeast. Briefly: Antimicrobial activity / MIC against C. albicans growing in yeast-forming conditions. The class given is cell-based, C. albicans SC5314. The settings on record: for MIC: 24 h; for MIC / MIC C. albicans Yeast: MIC100, lowest concentration inhibiting 100% of growth, 24 hrs incubation; for IC50: Candida albicans, −log IC50 against C. albicans, training set of 3D QSAR, read-out: pIC50 Experimental (converted). How it is done:
as §1, §2

For a further series, the system named is S. aureus. Briefly: Antimicrobial activity / MIC against S. aureus. Type of series: cell-based, methicillin-resistant Staphylococcus aureus (MRSA) LAC300. Particulars: Staphylococcus aureus; MIC100; 24 hrs incubation; read-out: MIC Bacteria S. aureus. How it is done: as §1, with “Polymyxin B (colistin), vancomycin and Ketoconazole were purchased from (Sigma-Aldrich).” left out
The antimicrobial activity of compounds SR1-8 on agar plates, liquid broth media and MIC were measured according to modified Clinical and Laboratory Standards Institute (CLSI). […] The inhibition zones (mm) were measured by determining the diameter of the clear area. Similarly, the activity in liquid media was measured by incubating the aforementioned concentrations of the compounds into LB broth media inoculated with 10^5 CFU/mL in 96-well microplates at 37° C. for 24 h. The turbidity representing the microbial growth was measured by microplate reader (DYNEX technologies) at OD600. […]

Values after ≈ are worked out from the molar mass of the structure shown. Bounds are passed on as bounds.

Experimental for human erythrocytes: DPBS-washed erythrocytes (3×10^6 cells per well) were incubated in 96-well plate with 200 μg/mL of SR compounds at 37° C. for 30 min. The hemoglobin released from lysed erythrocytes was measured using micro-plate reader at 405 nm. The absorbance value for each sample was subtracted from the absorbance value of cells treated only with washing buffer and the hemolytic activity (%) was calculated. The data display the mean±standard error (SEM) of three independent measurements.
The cytotoxic assay of SR compounds was measured by quantifying the amount of hemoglobin released by lysis of human erythrocytes as previously described. Briefly, fresh whole blood from healthy individual was collected by venipuncture and the blood was immediately centrifuged at 500 g for 10 min using benchtop centrifuge (Eppendorf 5804R Refrigerated Benchtop). […] The plate was incubated at 37° C. for 30 min, and the intact cells were precipitated by centrifugation at 500 g for 10 min at 4° C. and the supernatants (125 μL) were transferred to a flat-bottom 96-well plate to measure hemoglobin release by absorbance at 405 nm using a microplate reader. The absorbance values for each sample were subtracted from the absorbance value obtained for washing buffer-treated cells and the hemolytic activity (%) was calculated. […]

Regarding `Cc1ccc(COc2ccc(C=C3SC(=S)NC3=O)cc2Br)cc1` [SR2, 5-[3-Bromo-4-(4-methyl-benzyloxy)-benzylidene]-2-thioxo-thiazolidin-4-one], the melting point (as a rule, the temperature of the solid-liquid transition) lay within 217 to 219 °C. In series [1], the MIC came to 10 ± 2 µg/mL (≈ 23.8 µM). Besides, in the series with E. coli, the MIC came to 100 ± 10 µg/mL (≈ 238 µM). Further, in the series with C. albicans yeast, the MIC worked out at 200 µg/mL (≈ 476 µM), the IC50 is 475 µM and the “MIC C. albicans Yeast” value came to 200 ± 15 µg/mL (≈ 476 µM).
Consider `CC(=O)N1CCN(c2ccc(OCC3COC(Cn4ccnc4)(c4ccc(Cl)cc4Cl)O3)cc2)CC1` (centres unmarked) [Ketoconazole, reference compound], for which, in the series on C. albicans yeast, the MIC worked out at 3 µg/mL (≈ 5.65 µM).
`O=C1NC(=S)SC1=Cc1ccc(OCc2cccc(C(F)(F)F)c2)c(Cl)c1` [SR8, 5-[3-Chloro-4-(3-trifluoromethyl-benzyloxy)-benzylidene]-2-thioxo-thiazolidin-4-one] gave a melting point of 224 to 226 °C. For the same molecule, in series [1], the inhibition – broadly, the percentage by which the read-out fell short of the control – at 10 µg/mL was determined as 50% and the MIC stood at 20 ± 5 µg/mL (≈ 46.5 µM). Also, the MIC in the series with E. coli came out at 100 ± 10 µg/mL (≈ 233 µM). Moreover, in the series with C. albicans yeast, the MIC came to 125 µg/mL (≈ 291 µM), the IC50 is 294 µM and the “MIC C. albicans Yeast” value was 125 ± 10 µg/mL (≈ 291 µM).
For the molecule `COc1cc(C=C2SC(=S)NC2=O)ccc1OCc1ccc(C(F)(F)F)cc1` [SR4, 5-[3-Methoxy-4-(4-trifluoromethyl-benzyloxy)-benzylidene]-2-thioxo-thiazolidin-4-one], the melting point lay in the range of 209 to 211 °C. In series [1], this molecule returned an inhibition at 10 µg/mL of 50% and an MIC of 20 ± 5 µg/mL (≈ 47 µM). Besides, the MIC in the series with E. coli stood at 100 ± 10 µg/mL (≈ 235 µM). In the series on C. albicans yeast, the MIC was 200 µg/mL (≈ 470 µM), the IC50 was 456 µM and the “MIC C. albicans Yeast” value was 200 ± 10 µg/mL (≈ 470 µM).
For `O=C1NC(=S)SC1=Cc1ccc(OCc2ccc(C(F)(F)F)cc2)c(Br)c1` [SR5, 5-[3-Bromo-4-(4-trifluoromethyl-benzyloxy)-benzylidene]-2-thioxo-thiazolidin-4-one], the melting point was in the range of 210 to 212 °C. Further, the MIC in series [1] stood at 20 ± 3 µg/mL (≈ 42.2 µM). In addition, in the series with E. coli, the MIC came out at 400 ± 20 µg/mL (≈ 843 µM). In the series with C. albicans yeast, the MIC stood at 200 µg/mL (≈ 422 µM), the IC50 was 470 µM and the “MIC C. albicans Yeast” value worked out at 200 ± 15 µg/mL (≈ 422 µM).
Triton X-100: the “erythrocyte hemolysis (positive control)” value with human erythrocytes worked out at 100%.
The molecule `COc1cc(C=C2SC(=S)NC2=O)ccc1OCc1ccc(C)cc1` [SR1, 5-[3-Methoxy-4-(4-methyl-benzyloxy)-benzylidene]-2-thioxo-thiazolidin-4-one] had a melting point of 205 to 207 °C. In addition, in series [1], the MIC turned out to be 20 ± 5 µg/mL (≈ 53.8 µM). Besides, the MIC in the series on E. coli turned out to be 100 ± 10 µg/mL (≈ 269 µM). Besides, the MIC in the series with S. aureus was greater than 400 µg/mL. Besides, in the series with C. albicans yeast, the MIC stood at 400 µg/mL (≈ 1080 µM), the IC50 is 1080 µM and the “MIC C. albicans Yeast” value was greater than 400 ± 15 µg/mL.
With `COc1cc(C=C2SC(=S)NC2=O)ccc1OCc1cccc(C(F)(F)F)c1` [SR7, 5-[3-Methoxy-4-(3-trifluoromethyl-benzyloxy)-benzylidene]-2-thioxo-thiazolidin-4-one], the melting point fell in the range of 199 to 201 °C. In series [1], this molecule gave an inhibition at 10 µg/mL of 90% and an MIC of 10 ± 3 µg/mL (≈ 23.5 µM). Also, in the series on E. coli, the MIC came to 100 ± 5 µg/mL (≈ 235 µM). Moreover, in the series on C. albicans yeast, the MIC came to 125 µg/mL (≈ 294 µM), the IC50 was 264 µM and the “MIC C. albicans Yeast” value is 125 ± 10 µg/mL (≈ 294 µM).
`Cc1ccc(COc2ccc(C=C3SC(=S)NC3=O)cc2Cl)cc1` [SR3, 5-[3-Chloro-4-(4-methyl-benzyloxy)-benzylidene]-2-thioxo-thiazolidin-4-one] showed a melting point of 225 to 227 °C. Further, the MIC in series [1] is 20 ± 5 µg/mL (≈ 53.2 µM). Further, the MIC with E. coli is 400 ± 10 µg/mL (≈ 1060 µM). In addition, in the series on C. albicans yeast, the MIC was 400 µg/mL (≈ 1060 µM), the IC50 is 1060 µM and the “MIC C. albicans Yeast” value was greater than 400 ± 10 µg/mL.
Turning to `O=C1NC(=S)SC1=Cc1ccc(OCc2cccc(C(F)(F)F)c2)c(Br)c1` [SR6, 5-[3-Bromo-4-(3-trifluoromethyl-benzyloxy)-benzylidene]-2-thioxo-thiazolidin-4-one], the melting point was in the range of 235 to 237 °C. In series [1], the inhibition at 10 µg/mL amounted to 50% and the MIC amounted to 10 ± 5 µg/mL (≈ 21.1 µM). Moreover, in the series with E. coli, the MIC was determined as 400 ± 10 µg/mL (≈ 843 µM). Further, in the series with C. albicans yeast, the MIC turned out to be 125 µg/mL (≈ 264 µM), the IC50 was 264 µM and the “MIC C. albicans Yeast” value turned out to be 125 ± 10 µg/mL (≈ 264 µM).
With Colistin [reference compound], in the series with E. coli, the “MIC Bacteria E. Coli” value was found to be 5 µg/mL.
